From US5990083A, “Multicatalytic protease inhibitors” (Cephalon, Inc., priority 1997, dated 1999)
“And” between values parts separate entries of the source, which are not always exact repeats. Equal entries are not always repeated.

Target: T1, human MCP (Homo sapiens, UniProt P28074+Q99436)
T1 construct: Samples of human liver and brain obtained post-mortem were used for isolation and partial purification of MCP; from tissue; host or cells: human liver and brain, post-mortem
Assay: Determination of IC50 values for MCP inhibitors (chymotrypsin-like or trypsin-like activity of MCP)
Assay type: biochemical
Settings: Table 5, first series; enzyme incubated with inhibitor 15 minutes at 37° C. prior to substrate
Method: Samples of human liver and brain obtained post-mortem were used for isolation and partial purification of MCP by ion-exchange chromatography, ammonium sulfate precipitation, and gel filtration (e.g., Driscoll and Goldberg, Proc. Natl. Acad. Sci. 86, 787-791 (1989); Yamamoto et al., Biochim, Biophys. Acta 882, 297-304 (1986). For either starting material, tissue was homogenized in 10 volumes of 20 mM Tris-HCl (pH 7.5) containing 20% glycerol. Following centrifugation at 40,000×g for 30 minutes, proteolytic activity of the chymotrypsin-like component of MCP could be detected in the supernatant (see below). The supernatant was fractionated on a DEAE-Sepharose Fast Flow column equilibrated in homogenization buffer. For each liter of supernatant, 250 ml of resin was used. Following sample loading, the column was washed with ^~ 10 volumes homogenization buffer, and proteins were eluted with a linear NaCl gradient of from 0 to 400 mM (21 for 250 ml resin). Fractions were assayed for MCP activity, and the active fractions were pooled and subjected to precipitation with (NH4)2 SO4 at 80% saturation. Precipitated proteins were collected by centrifugation, resuspended in homogenization buffer, and loaded on a Sephacryl S300HR column (500 ml resin volume) that had been standardized using bovine serum albumin (68 kDa). A single peak of MCP activity was eluted with a molecular weight of ^~ 650 kDa. This preparation was free of other measurable proteolytic activities and maintained its MCP activity upon storage at 4° C. for >6 months. This preparation was used for most of the experiments. Further fractionation of the preparation on an hydroxyapatite-Ultrogel column (Yamamoto et al., supra) yielded a more highly purified enzyme, which according to denaturing SDS-polyacrylamide gel electrophoresis was comprised of the expected >10 subunits ranging in Mr from 20 to 35 kDa.
The procedure for MPC isolation described above generated an enzyme complex whose proteolytic activities were latent, but which could be activated by addition of low concentrations (0.02-0.05%) of SDS (Yamamoto et al., supra). The chymotrypsin-like activity was assayed according to the following procedure: in 96 well microtiter plates, human MCP was diluted 4 to 10-fold in homogenization buffer containing 0.04% SDS. A calorimetric substrate MeOSuc-EVKM-para-nitroanilide (methoxysuccinyl-Glu-Val-Lys-Met-pNa), purchased from Bachem Bioscience Inc., King of Prussia, Pennsylvania was added to a final concentration of 100 μM from a stock solution of 10 mM in dimethylsulfoxide. Reaction volumes were 200 μl per well. After incubation for various periods of time at 37° C., the concentration of free pNa was determined on a Biotech EL-340 microplate reader, reading absorption at 490 nm. Protease activity was determined under conditions in which substrate hydrolysis increased linearly with time and the change in absorption was proportional to the concentration of free pNa. Alternatively, a fluorogenic substrate was used, methoxysuccinyl-Phe-Leu-Phe-amidomethylcoumarin (Enzyme Systems Products, Dublin, Calif.), and the change in fluorescence monitored at an excitation of 390 nm, and an emission at 460 nm.
The trypsin-like activity of human MCP was assayed as described above with the following modifications. Reactions were carried out in Tris-glycerol buffer (pH 9.5) supplemented with 1 mM 2-mercaptoethanol, and the substrate was a fluorogenic substrate, Benzyloxycarbonyl--Phe--Arg--AMC (100 μM).
After incubation for various periods of time at 37° C., the concentration of free AMC was determined on a Fluoroskan II spectrofluorimeter with an excitation filter of 390 nm and an emission filter of 460 nm. Protease activity was determined under conditions in which substrate hydrolysis increased linearly with time and the change in fluorescence was proportional to the concentration of free AMC. […]

Row | SMILES | IC50
1 | CC(C)C[C@@H](C=O)NC(=O)[C@H](CCCNC(=N)N[N+](=O)[O-])NC(=O)C(CCCCCCCCC#N)C1CCCC1 (stereo partly drawn) [Compound 14, 10-cyano-2-cyclopentyldecanoyl-N^g-nitro-L-arginyl-L-leucinal] | 7 nM and 6 nM
2 | COC(=O)CCCCCCCC(C(=O)N[C@@H](CCCNC(=N)NS(=O)(=O)c1c(C)c(C)c2c(c1C)CCC(C)(C)O2)C(=O)N[C@H](C=O)CC(C)C)C1CCCC1 (stereo partly drawn) [Compound 20, 9-Methoxycarbonyl-2-cyclopentyl-nonanoyl-N^g-(2,2,5,7,8-pentamethylchroman-6-sulfonyl)-L-arginyl-L-leucinal] | 10 nM
